Measured values published in ChEMBL document CHEMBL1201862, “PubChem BioAssay data set” (2004).
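Values below derive from 48-hour exposures of cells grown in 96-well plates, with endpoints linearly interpolated between the two concentrations bracketing the appropriate inhibition level. GI50 marks 50% less growth.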 The source made the active and inactive calls. No stated cut-off is given here; in the data, active = GI50 up to about 1.1 µM and inactive = higher.

What was measured:
Assay in all cases: growth of human tumour cells (NCI), 48 h
CAKI-1 = system: CAKI-1
CCRF-CEM = system: CCRF-CEM
HL-60 = system: HL-60
OVCAR-4 = system: OVCAR-4
HOP-92 = system: HOP-92
NCI-H23 = system: NCI-H23
MDA-MB-435 = system: MDA-MB-435
OVCAR-3 = system: OVCAR-3
MOLT-4 = system: MOLT-4
RPMI-8226 = system: RPMI-8226
SNB-75 = system: SNB-75
LOX IMVI = system: LOX IMVI
MDA-MB-231 = system: MDA-MB-231
A549 = system: A549
HCT-15 = system: HCT-15
HOP-62 = system: HOP-62
SN12C = system: SN12C
SF-268 = system: SF-268
SK-MEL-5 = system: SK-MEL-5
NCI-H226 = system: NCI-H226
OVCAR-8 = system: OVCAR-8
SF-295 = system: SF-295
UACC-62 = system: UACC-62
HCC 2998 = system: HCC 2998
SK-MEL-28 = system: SK-MEL-28
UACC-257 = system: UACC-257
MDA-N = system: MDA-N
HCT-116 = system: HCT-116
NCI-H460 = system: NCI-H460
T47D = system: T47D
NCI/ADR-RES = system: NCI/ADR-RES
HT-29 = system: HT-29
IGROV-1 = system: IGROV-1
A498 = system: A498
DU-145 = system: DU-145
SF-539 = system: SF-539
MCF7 = system: MCF7
U-251 = system: U-251
M14 = system: M14
K562 = system: K562
Malme-3M = system: Malme-3M
UO-31 = system: UO-31
BT-549 = system: BT-549
SNB-19 = system: SNB-19
NCI-H522 = system: NCI-H522
ACHN = system: ACHN
TK-10 = system: TK-10
SW-620 = system: SW-620
KM12 = system: KM12
PC-3 = system: PC-3
COLO 205 = system: COLO 205
SK-OV-3 = system: SK-OV-3
SK-MEL-2 = system: SK-MEL-2
EKVX = system: EKVX
RXF 393 = system: RXF 393
786-0 = system: 786-0
OVCAR-5 = system: OVCAR-5
SR = system: SR
Hs-578T = system: Hs-578T

With `Nc1c(C(=O)Nc2ccc([As](=O)(O)O)cc2)cnc2nnnn12` the GI50 (CAKI-1) was > 100 µM (inactive), the GI50 (CCRF-CEM) was > 100 µM (inactive) and the GI50 (HL-60) was > 100 µM (inactive). For the same molecule, the GI50 (OVCAR-4) was > 100 µM (inactive), the GI50 (HOP-92) was > 100 µM (inactive) and the GI50 (NCI-H23) was > 100 µM (inactive). For the same molecule, the GI50 (MDA-MB-435) was > 100 µM (inactive), the GI50 (OVCAR-3) was > 100 µM (inactive) and the GI50 (MOLT-4) was > 100 µM (inactive). The GI50 (RPMI-8226) was > 100 µM (inactive), the GI50 (SNB-75) was > 100 µM (inactive) and the GI50 (LOX IMVI) was > 100 µM (inactive). The GI50 (MDA-MB-231) was > 100 µM (inactive), the GI50 (A549) was > 100 µM (inactive) and the GI50 (HCT-15) was > 100 µM. For the same molecule, the GI50 (HOP-62) was > 100 µM (inactive), the GI50 (SN12C) was > 100 µM (inactive) and the GI50 (SF-268) was > 100 µM (inactive). The GI50 (SK-MEL-5) was > 100 µM (inactive), the GI50 (NCI-H226) was > 100 µM (inactive) and the GI50 (OVCAR-8) was > 100 µM (inactive). For the same molecule, the GI50 (SF-295) was > 100 µM (inactive), the GI50 (UACC-62) was > 100 µM (inactive) and the GI50 (HCC 2998) was > 100 µM (inactive). For the same molecule, the GI50 (SK-MEL-28) was > 100 µM (inactive), the GI50 (UACC-257) was > 100 µM (inactive) and the GI50 (MDA-N) was > 100 µM (inactive). For the same molecule, the GI50 (HCT-116) was > 100 µM (inactive), the GI50 (NCI-H460) was > 100 µM (inactive) and the GI50 (T47D) was > 100 µM (inactive). The GI50 (NCI/ADR-RES) was > 100 µM (inactive), the GI50 (HT-29) was > 100 µM (inactive) and the GI50 (IGROV-1) was > 100 µM (inactive). For the same molecule, the GI50 (A498) was > 100 µM (inactive), the GI50 (DU-145) was > 100 µM (inactive) and the GI50 (SF-539) was > 100 µM (inactive). For the same molecule, the GI50 (MCF7) was > 100 µM (inactive), the GI50 (U-251) was > 100 µM (inactive) and the GI50 (M14) was > 100 µM (inactive). The GI50 (K562) was > 100 µM (inactive), the GI50 (Malme-3M) was > 100 µM (inactive) and the GI50 (UO-31) was > 100 µM (inactive). The GI50 (BT-549) was > 100 µM (inactive), the GI50 (SNB-19) was > 100 µM (inactive) and the GI50 (NCI-H522) was > 100 µM (inactive). The GI50 (ACHN) was > 100 µM (inactive), the GI50 (TK-10) was > 100 µM (inactive) and the GI50 (SW-620) was > 100 µM (inactive). For the same molecule, the GI50 (KM12) was > 100 µM (inactive), the GI50 (PC-3) was > 100 µM (inactive) and the GI50 (COLO 205) was > 100 µM (inactive). The GI50 (SK-OV-3) was > 100 µM (inactive), the GI50 (SK-MEL-2) was > 100 µM (inactive) and the GI50 (EKVX) was > 100 µM (inactive). The GI50 (RXF 393) was > 100 µM (inactive), the GI50 (786-0) was > 100 µM (inactive) and the GI50 (OVCAR-5) was > 100 µM (inactive). For the same molecule, the GI50 (SR) was > 100 µM (inactive).
`COc1ccccc1C(C1=C(O)COC1=O)c1cc2c(cc1OC(C)=O)OCO2` (stereo not drawn) was tested, and the GI50 (CAKI-1) was > 100 µM (inactive), the GI50 (CCRF-CEM) was > 100 µM (inactive) and the GI50 (HL-60) was > 100 µM (inactive). The GI50 (OVCAR-4) was > 100 µM (inactive), the GI50 (NCI-H23) was > 100 µM (inactive) and the GI50 (MDA-MB-435) was > 100 µM (inactive). The GI50 (OVCAR-3) was > 100 µM (inactive), the GI50 (MOLT-4) was > 100 µM (inactive) and the GI50 (RPMI-8226) was > 100 µM (inactive). For the same molecule, the GI50 (SNB-75) was > 100 µM (inactive), the GI50 (LOX IMVI) was > 100 µM (inactive) and the GI50 (MDA-MB-231) was > 100 µM (inactive). The GI50 (A549) was > 100 µM (inactive), the GI50 (HCT-15) was > 100 µM and the GI50 (HOP-62) was > 100 µM (inactive). For the same molecule, the GI50 (SN12C) was > 100 µM (inactive), the GI50 (SF-268) was > 100 µM (inactive) and the GI50 (SK-MEL-5) was > 100 µM (inactive). The GI50 (NCI-H226) was > 100 µM (inactive), the GI50 (OVCAR-8) was > 100 µM (inactive) and the GI50 (SF-295) was > 100 µM (inactive). For the same molecule, the GI50 (UACC-62) was > 100 µM (inactive), the GI50 (HCC 2998) was > 100 µM (inactive) and the GI50 (SK-MEL-28) was > 100 µM (inactive). The GI50 (UACC-257) was > 100 µM (inactive), the GI50 (MDA-N) was > 100 µM (inactive) and the GI50 (HCT-116) was > 100 µM (inactive). The GI50 (NCI-H460) was > 100 µM (inactive), the GI50 (NCI/ADR-RES) was > 100 µM (inactive) and the GI50 (HT-29) was > 100 µM (inactive). For the same molecule, the GI50 (IGROV-1) was > 100 µM (inactive), the GI50 (A498) was > 100 µM (inactive) and the GI50 (DU-145) was > 100 µM (inactive). The GI50 (SF-539) was > 100 µM (inactive), the GI50 (MCF7) was > 100 µM (inactive) and the GI50 (U-251) was > 100 µM (inactive). The GI50 (M14) was > 100 µM (inactive), the GI50 (K562) was > 100 µM (inactive) and the GI50 (Malme-3M) was > 100 µM (inactive). For the same molecule, the GI50 (UO-31) was > 100 µM (inactive), the GI50 (BT-549) was > 100 µM (inactive) and the GI50 (SNB-19) was > 100 µM (inactive). For the same molecule, the GI50 (ACHN) was > 100 µM (inactive), the GI50 (TK-10) was > 100 µM (inactive) and the GI50 (SW-620) was > 100 µM (inactive). For the same molecule, the GI50 (KM12) was > 100 µM (inactive), the GI50 (Hs-578T) was > 100 µM (inactive) and the GI50 (PC-3) was > 100 µM (inactive). For the same molecule, the GI50 (COLO 205) was > 100 µM (inactive), the GI50 (SK-OV-3) was > 100 µM (inactive) and the GI50 (EKVX) was > 100 µM (inactive). For the same molecule, the GI50 (RXF 393) was > 100 µM (inactive), the GI50 (786-0) was > 100 µM (inactive) and the GI50 (OVCAR-5) was > 100 µM (inactive). For the same molecule, the GI50 (SR) was > 100 µM (inactive).
